Common to all, as to experiment: growth of human tumour cells (NCI), 48 h
Assay [1] concerns HCT-116 colon.
The subject of assay [2] is SK-MEL-28 melanoma.
Assay [3] has as its system NCI-H460 lung.
Assay [4] has as its system SF-295 CNS.
Assay [5] has as its system MDA-MB-435.
Assay [6] relates to IGROV1 ovarian.
The subject of assay [7] is SW-620 colon.
Assay [8] relates to NCI-H226 lung.

SMILES strings stand for the structures.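 A five-concentration, 48-hour dose response in 96-well plates underlies each endpoint, interpolated linearly between surrounding concentrations. GI50: concentration for 50% inhibition of growth. Definition used: TGI = concentration required for complete inhibition of growth.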

Regarding `O=C(c1ccco1)c1nc2cc(C(F)(F)F)ccc2[n+]([O-])c1C(F)(F)F`, the GI50 in assay [1] is 38.5 µM; in assay [2], 41.4 µM; in assay [3], 61 µM; in assay [4], 51.3 µM; in assay [5], 37 µM; in assay [6], 34.9 µM. Further, in assay [7], the GI50 is 37.5 µM. The TGI in assay [1], in assay [2], in assay [3], in assay [4], in assay [5] and in assay [6] was more than 100 µM each time. In addition, the TGI in assay [7] is more than 100 µM.
`COc1cc2cnc(-c3ccccc3)cc2cc1OC`: the TGI is more than 100 µM in assay [1]; more than 100 µM in assay [2]; more than 100 µM in assay [3]; 45.8 µM in assay [8]; 45.1 µM in assay [4]; 67.3 µM in assay [5]. Besides, the TGI is 49.5 µM in assay [6] and more than 100 µM in assay [7].
As to `Oc1ccc2ccccc2c1N=Nc1ccc(Cl)cc1`, the TGI in assay [1], in assay [2], in assay [8], in assay [4], in assay [5] and in assay [6] was more than 100 µM in each case. In addition, the TGI in assay [7] is more than 100 µM.
With `CC(C)C[CH2][Ge]([CH2]CC(C)C)([CH2]CC(C)C)[CH2]CC(C)C`, the GI50 in assay [1], in assay [2], in assay [3], in assay [8], in assay [4] and in assay [5] was more than 100 µM in each case. In addition, the GI50 in assay [6] and in assay [7] was more than 100 µM in each case. The TGI in assay [1], in assay [2], in assay [3], in assay [8], in assay [4] and in assay [5] was more than 100 µM throughout. The TGI in assay [6] and in assay [7] was more than 100 µM throughout.
As to `Fc1cccc(Cl)c1Cn1c(-c2c(F)cccc2Cl)nc2ccccc21`, the GI50 in assay [1] is 34.4 µM; in assay [2] it was 20.4 µM; in assay [3], 13.1 µM; in assay [8], 22 µM; in assay [4], 16.8 µM; in assay [5], 20.1 µM. For the same molecule, the figures for the GI50 in assay [6] and in assay [7] were 21.9 µM and 16.8 µM, respectively. The TGI is more than 100 µM in assay [1]; 46.2 µM in assay [2]; 34.1 µM in assay [3]; 57.8 µM in assay [8]; 46.8 µM in assay [4]; 61.7 µM in assay [5]. Moreover, the values for the TGI in assay [6] and in assay [7] were more than 100 µM and 38 µM, respectively.
`Cc1cc(NCc2cc(Nc3ccnc4cc(Cl)ccc34)ccc2F)nc(N2CCSCC2)n1`: the GI50 in assay [1] was 1.18 µM; in assay [8], 2.71 µM; in assay [4], 1.31 µM; in assay [6], 1.83 µM. Moreover, the TGI in assay [1] was determined as 2.46 µM; in assay [8], 12.1 µM; in assay [4], 2.76 µM; in assay [6], 4.42 µM.
For `COc1cc(-c2nc(-c3ccc(-c4nc5ccc(F)cc5[nH]4)cc3)no2)cc(OC)c1OC`, the GI50 was 3.78 µM in assay [2]; 2.97 µM in assay [3]; 2.72 µM in assay [8]; 2.31 µM in assay [4]; 2.73 µM in assay [5]; 3.81 µM in assay [6]. The GI50 in assay [7] was 3.61 µM. Besides, the TGI is 16 µM in assay [2]; 12.5 µM in assay [3]; 10.7 µM in assay [8]; 7.02 µM in assay [4]; 10.7 µM in assay [5]; 14.5 µM in assay [6]. The TGI in assay [7] was 16.1 µM.
With `CN(C)c1ccc2cc3ccc(N(C)C)cc3nc2c1`, the TGI in assay [2] was 16.3 µM; in assay [3], 1.99 µM; in assay [8], 19.9 µM; in assay [4] it was 15.2 µM; in assay [5] it was 13 µM; in assay [6], 17.3 µM.
As for `CC(=O)Nc1ccc(-c2csc(Nc3cccc(-c4csc(-c5ccccc5)n4)c3)n2)cc1`, the GI50 is 18.4 µM in assay [1]; 6.75 µM in assay [2]; 18.8 µM in assay [3]; 14.7 µM in assay [4]; 15.2 µM in assay [5]; 21.5 µM in assay [6]. In addition, the GI50 in assay [7] is more than 50 µM. The TGI in assay [1] was more than 50 µM; in assay [2], 36.4 µM; in assay [3] it was more than 50 µM; in assay [4], more than 50 µM; in assay [5], more than 50 µM; in assay [6], more than 50 µM. In assay [7], the TGI is more than 50 µM.
On to `ClC1c2ccccc2C2(c3ccccc3)OOC1(c1ccccc1)O2` (configuration not stated), for which the TGI in assay [2] was 3.8 µM; in assay [3], 3.13 µM; in assay [8], 4.08 µM; in assay [4] it was 5.85 µM; in assay [7], 2.96 µM.
Turning to `Oc1ccc(Oc2cnc3cc(Cl)ccc3n2)cc1`, the GI50 in assay [1] is 37.1 µM; in assay [2], 76 µM; in assay [3], 20.1 µM; in assay [8] it was 55.4 µM; in assay [4], 22.6 µM; in assay [5] it was 23.8 µM. Further, in assay [7], the GI50 was 38.2 µM. Besides, the TGI is more than 100 µM in assay [1]; more than 100 µM in assay [2]; 53.1 µM in assay [3]; more than 100 µM in assay [8]; 74.5 µM in assay [4]; 97.3 µM in assay [5]. In assay [7], this molecule displayed a TGI of more than 100 µM.
For the molecule `COc1ccc(/C=C\c2cc(OC)c(OC)c(OC)c2)cc1OCC(=O)Nc1nc2ccccc2s1`, the GI50 in assay [1] is 0.0439 µM; in assay [3], 0.0476 µM; in assay [4] it was 0.22 µM; in assay [6], 0.221 µM; in assay [7], 0.0359 µM. Moreover, the TGI in assay [1] is more than 100 µM; in assay [3], more than 100 µM; in assay [4], 0.646 µM; in assay [6] it was more than 81.4 µM; in assay [7] it was more than 100 µM.

Values taken from PubChem BioAssay (NCI).
